# Laboratory results: the supplement of paper PMC9938120
# How the values were obtained:
# Experiment in all cases: drug sensitivity score (DSS3, normalised partial AUC of % inhibition dose-response) (DSS (score)); higher = more sensitive (stronger inhibition of viability); extreme values may be limits of the assay
# FMOC25_1 = patient-derived low-grade serous ovarian cancer cells; settings: 72 h; library: FO4B; assay format: 2D, 384-well, CellTiter-Glo
# How it was run: (§1)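 On 384-well flat clear-bottom plates carrying compounds at five concentrations across a 10,000-fold range, patient-derived ovarian cancer cells below passage 10 were incubated for 72 h at 37 °C with 5% CO2. CellTiter-Glo readout of viability was processed in Breeze. A higher drug sensitivity score, defined as the partial area under the percent-inhibition dose-response curve divided by the log of the upper asymptote, means greater sensitivity.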
# FMOC09 = patient-derived high-grade serous ovarian cancer cells; settings: 72 h; library: FO5A; assay format: 2D, 384-well, CellTiter-Glo
# How it was run: as §1
# FMOC25_2 = patient-derived low-grade serous ovarian cancer cells; settings: 72 h; library: FO5A; assay format: 2D, 384-well, CellTiter-Glo
# How it was run: as §1
# FMOC02_3 = patient-derived low-grade serous ovarian cancer cells; settings: 72 h; library: FO5A; assay format: 2D, 384-well, CellTiter-Glo
# How it was run: as §1
# FMOC14 = patient-derived high-grade serous ovarian cancer cells; settings: 72 h; library: FO5A; assay format: 2D, 384-well, CellTiter-Glo
# How it was run: as §1
# FMOC22 = patient-derived mucinous ovarian cancer cells; settings: 72 h; library: FO5A; assay format: 2D, 384-well, CellTiter-Glo
# How it was run: as §1
# FMOC24 = patient-derived high-grade serous ovarian cancer cells; settings: 72 h; library: FO5A; assay format: 2D, 384-well, CellTiter-Glo
# How it was run: as §1
# FMOC02_2 = patient-derived low-grade serous ovarian cancer cells; settings: 72 h; library: FO5A; assay format: 2D, 384-well, CellTiter-Glo
# How it was run: as §1
# FMOC03 = patient-derived mucinous ovarian cancer cells; settings: 72 h; library: FO5A; assay format: 2D, 384-well, CellTiter-Glo
# How it was run: as §1
# FMOC06 = patient-derived mucinous ovarian cancer cells; settings: 72 h; library: FO5A; assay format: 2D, 384-well, CellTiter-Glo
# How it was run: as §1
compound,measurement,setting,value
CNNCc1ccc(C(=O)NC(C)C)cc1 [Procarbazine],drug sensitivity score,FMOC25_1,0
O=P1(NCCCl)OCCCN1CCCl (stereo unspecified) [Ifosfamide],drug sensitivity score,FMOC25_1,0
O=C(Nc1cccc(Cl)c1)Nc1ncc(CCNc2ncnc3ccsc23)s1 [SNS-314],drug sensitivity score,FMOC25_1,0.4
C/C(=C\c1csc(C)n1)[C@@H]1C[C@@H]2O[C@]2(C)CCC[C@H](C)[C@H](O)[C@@H](C)C(=O)C(C)(C)[C@@H](O)CC(=O)O1 [Patupilone],drug sensitivity score,FMOC25_1,9.3
NC(=O)Nc1sc(-c2ccc(F)cc2)cc1C(N)=O [TPCA-1],drug sensitivity score,FMOC25_1,2.9
Cn1c(Nc2ccc(C(F)(F)F)cc2)nc2cc(Oc3ccnc(-c4ncc(C(F)(F)F)[nH]4)c3)ccc21 [RAF265],drug sensitivity score,FMOC25_1,8.1
O=C(Cc1ccc(-c2ccc(OCCN3CCOCC3)cc2)cn1)NCc1ccccc1 [KX2-391],drug sensitivity score,FMOC25_1,12.7
CCCNC(=O)Nc1ccc(Oc2ncnc3cc(OC)c(OC)cc23)cc1Cl [KRN-633],drug sensitivity score,FMOC25_1,0
O=C(Nc1ccc(OC(F)(F)F)cc1)c1sccc1NCc1ccnc2ccccc12 [OSI-930],drug sensitivity score,FMOC25_1,0
O=C(O)CCCc1ccc(N(CCCl)CCCl)cc1 [Chlorambucil],drug sensitivity score,FMOC25_1,0
c1ccc([C@H]2CN3CCSC3=N2)cc1 [Levamisole],drug sensitivity score,FMOC25_1,0
CN(N=O)C(=O)N[C@@H](C=O)[C@@H](O)[C@H](O)[C@H](O)CO [Streptozocin],drug sensitivity score,FMOC25_1,0
COc1cc(C(=O)NC2CCN(C)CC2)c(F)cc1Nc1ncc2c(n1)N(C1CCCC1)CC(F)(F)C(=O)N2C [TAK-960],drug sensitivity score,FMOC25_1,0
CN(C)CCN1C(=O)c2cccc3cc(N)cc(c23)C1=O [Amonafide],drug sensitivity score,FMOC25_1,6.8
CS(=O)(=O)OCCCCOS(C)(=O)=O [Busulfan],drug sensitivity score,FMOC25_1,0
CCNC(=O)Nc1ccc(-c2nc3c(c(N4CCOC[C@@H]4C)n2)CCN(C2COC2)C3)cc1 [RG-7603],drug sensitivity score,FMOC25_1,7.8
CCc1c2c(nc3ccc(OC(=O)N4CCC(N5CCCCC5)CC4)cc13)-c1cc3c(c(=O)n1C2)COC(=O)[C@]3(O)CC [Irinotecan],drug sensitivity score,FMOC25_1,5.1
O=c1cc(N2CCOCC2)oc2c(-c3ccccc3)cccc12,drug sensitivity score,FMOC25_1,9.1
Cn1c(=O)c(F)c(Nc2ccc(I)cc2F)c2c(=O)n(C[C@@H](O)CO)cnc21 [TAK-733],drug sensitivity score,FMOC25_1,13.2
CN(c1ccccc1CNc1nc(Nc2ccc3c(c2)CC(=O)N3)ncc1C(F)(F)F)S(C)(=O)=O,drug sensitivity score,FMOC25_1,7
O=C1NC(=O)/C(=C/c2ccc3nccc(-c4ccncc4)c3c2)S1,drug sensitivity score,FMOC25_1,9.8
Oc1c2ccccc2c2c3c(cccc13)N=N2,drug sensitivity score,FMOC25_1,4.3
CC(=O)NCC(=O)N1[C@@H]2CC[C@H]1c1ccc(Nc3ncc(C(F)(F)F)c(NC4CCC4)n3)cc12,drug sensitivity score,FMOC25_1,9.1
CC(C)n1nc(-c2ccc3oc(N)nc3c2)c2c(N)ncnc21 [MLN-0128],drug sensitivity score,FMOC25_1,21
COc1cc2c(Nc3ccc(Cl)c(Cl)c3F)ncnc2cc1OC[C@@H]1C[C@@H]2CN(C)C[C@@H]2C1 [XL-647],drug sensitivity score,FMOC25_1,9.1
CCc1cc(Nc2nccc(-c3c(-c4ccc(OC)c(C(=O)Nc5c(F)cccc5F)c4)nc4ccccn34)n2)c(OC)cc1N1CCC(N2CCN(S(C)(=O)=O)CC2)CC1,drug sensitivity score,FMOC25_1,3.9
O=S(=O)(c1cccc2cnccc12)N1CCCNCC1 [Fasudil],drug sensitivity score,FMOC25_1,0
CNC(=O)c1ccc(N2C(=S)N(c3ccc(C#N)c(C(F)(F)F)c3)C(=O)C23CCC3)cc1F [RD162],drug sensitivity score,FMOC25_1,0
c1ccc2c(CCNc3ccc(Nc4ccncc4)cc3)c[nH]c2c1 [Serdemetan],drug sensitivity score,FMOC25_1,3.4
CC(C)Oc1cc(Nc2nc(N[C@@H](C)c3ccc(F)cn3)ncc2Cl)n[nH]1 [AZ-23],drug sensitivity score,FMOC25_1,0
C[C@]12CC[C@@H]3c4ccc(OC(=O)N(CCCl)CCCl)cc4CC[C@H]3[C@@H]1CC[C@@H]2O [Estramustine],drug sensitivity score,FMOC25_1,0
CCN1CCN(c2ccc(Nc3cc(N(C)C(=O)Nc4c(Cl)c(OC)cc(OC)c4Cl)ncn3)cc2)CC1 [NVP-BGJ398],drug sensitivity score,FMOC25_1,0
C[C@@H]1C[C@H]2O[C@@H]2/C=C\C=C\C(=O)Cc2c(Cl)c(O)cc(O)c2C(=O)O1 [Radicicol],drug sensitivity score,FMOC25_1,3.2
CCc1nc(-c2cccc(C)c2)c(-c2ccnc(NC(=O)c3ccccc3)c2)s1 [TAK-715],drug sensitivity score,FMOC25_1,0
O=C(NOCC1CC1)c1ccc(F)c(F)c1Nc1ccc(I)cc1Cl,drug sensitivity score,FMOC25_1,7.5
COc1cc2c(cc1O)CC[C@@H]1[C@@H]2CC[C@]2(C)[C@@H](O)CC[C@@H]12 [2-methoxyestradiol],drug sensitivity score,FMOC25_1,4.1
COC1=CC(c2cc3ccccc3[nH]2)=N/C1=C\c1[nH]c(C)cc1C [Obatoclax],drug sensitivity score,FMOC25_1,1.8
O=C(CCBr)N1CCN(C(=O)CCBr)CC1 [Pipobroman],drug sensitivity score,FMOC25_1,1.6
Cc1cc(-c2ncc(-c3cccnc3)cc2/C=C/c2ccccc2)cnc1-c1cccnc1 [Pyridoclax],drug sensitivity score,FMOC25_1,5.5
O=P1(N(CCCl)CCCl)NCCCO1 (stereo unspecified) [Cyclophosphamide],drug sensitivity score,FMOC25_1,0
O=C(O)c1ccc(Nc2ncc3c(n2)-c2ccc(Cl)cc2C(c2c(F)cccc2F)=NC3)cc1 [MLN-8054],drug sensitivity score,FMOC25_1,0
CC(C)CC(=O)Nc1n[nH]c2c1CN(C(=O)C1CCN(C)CC1)C2(C)C,drug sensitivity score,FMOC25_1,5.5
C=CCn1c(=O)c2cnc(Nc3ccc(N4CCN(C)CC4)cc3)nc2n1-c1cccc(C(C)(C)O)n1 [MK1775],drug sensitivity score,FMOC25_1,11.5
c1ccc(Cn2c(-c3ccc(OC[C@H](C4CCNCC4)n4c(-c5ccccc5)nc5ccccc54)cc3)nc3ccccc32)cc1 [deltarasin],drug sensitivity score,FMOC25_1,5.5
CS(=O)(=O)N1CCc2c(-c3cnc(N)nc3)nc(N3CCOCC3)nc21,drug sensitivity score,FMOC25_1,10.5
O=C(c1ccc(/C=C/c2n[nH]c3ccccc23)cc1)N1CCNCC1 [KW-2449],drug sensitivity score,FMOC25_1,0
O=C(NC[C@H](O)CO)c1ccncc1Nc1ccc(I)cc1F [Pimasertib],drug sensitivity score,FMOC25_1,14.7
O=c1ncn2nc(Sc3ccc(F)cc3F)ccc2c1-c1c(Cl)cccc1Cl [VX 745],drug sensitivity score,FMOC25_1,0
CCn1c(=O)c(-c2cc[nH]n2)cc2c(C)nc(N)nc21 [Voxtalisib],drug sensitivity score,FMOC25_1,10.6
C[C@]12C=CC(=O)C=C1CC[C@@H]1[C@@H]2C(=O)C[C@@]2(C)[C@H]1CC[C@]2(O)C(=O)CO [Prednisone],drug sensitivity score,FMOC25_1,0
CCNC(=O)C[C@@H]1N=C(c2ccc(Cl)cc2)c2cc(OC)ccc2-n2c(C)nnc21,drug sensitivity score,FMOC25_1,3.8
C=CCNC1=C2C[C@@H](C)C[C@H](OC)[C@H](O)[C@@H](C)/C=C(\C)[C@H](OC(N)=O)[C@@H](OC)/C=C\C=C(/C)C(=O)NC(=CC1=O)C2=O [Tanespimycin],drug sensitivity score,FMOC25_1,14.6
Nc1nc2cc(-c3ccc4ncc(C(=O)N5CCOCC5)n4c3)ccc2o1 [Serabelisib],drug sensitivity score,FMOC09,1.3
same,drug sensitivity score,FMOC25_2,6.7
same,drug sensitivity score,FMOC02_3,7.2
same,drug sensitivity score,FMOC14,0.1
same,drug sensitivity score,FMOC22,2.1
same,drug sensitivity score,FMOC24,0
same,drug sensitivity score,FMOC02_2,6.6
same,drug sensitivity score,FMOC03,3
same,drug sensitivity score,FMOC06,3.5
